This is an account of results in PubChem BioAssay AID1347408 (Pan Lab, Icahn School of Medicine at Mount Sinai, 2020).

Results filed as inconclusive are left out. Active and inactive are the calls of the source.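 How the source made its calls: active means IC50 half-inhibiting concentration at or below 10 micromolar; inconclusive means IC50 above 10 and up to 20 micromolar; inactive means IC50 above 20 micromolar.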

Chain of E3 ubiquitin-protein ligase RBX1 (Homo sapiens) + Cullin-1 (Homo sapiens) (P62877 whole entry, looked up): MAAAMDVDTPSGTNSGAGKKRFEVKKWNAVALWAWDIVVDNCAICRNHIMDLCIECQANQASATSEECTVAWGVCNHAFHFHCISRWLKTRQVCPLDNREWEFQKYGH
Chain of E3 ubiquitin-protein ligase RBX1 (Homo sapiens) + Cullin-1 (Homo sapiens) (Q13616 whole entry, looked up): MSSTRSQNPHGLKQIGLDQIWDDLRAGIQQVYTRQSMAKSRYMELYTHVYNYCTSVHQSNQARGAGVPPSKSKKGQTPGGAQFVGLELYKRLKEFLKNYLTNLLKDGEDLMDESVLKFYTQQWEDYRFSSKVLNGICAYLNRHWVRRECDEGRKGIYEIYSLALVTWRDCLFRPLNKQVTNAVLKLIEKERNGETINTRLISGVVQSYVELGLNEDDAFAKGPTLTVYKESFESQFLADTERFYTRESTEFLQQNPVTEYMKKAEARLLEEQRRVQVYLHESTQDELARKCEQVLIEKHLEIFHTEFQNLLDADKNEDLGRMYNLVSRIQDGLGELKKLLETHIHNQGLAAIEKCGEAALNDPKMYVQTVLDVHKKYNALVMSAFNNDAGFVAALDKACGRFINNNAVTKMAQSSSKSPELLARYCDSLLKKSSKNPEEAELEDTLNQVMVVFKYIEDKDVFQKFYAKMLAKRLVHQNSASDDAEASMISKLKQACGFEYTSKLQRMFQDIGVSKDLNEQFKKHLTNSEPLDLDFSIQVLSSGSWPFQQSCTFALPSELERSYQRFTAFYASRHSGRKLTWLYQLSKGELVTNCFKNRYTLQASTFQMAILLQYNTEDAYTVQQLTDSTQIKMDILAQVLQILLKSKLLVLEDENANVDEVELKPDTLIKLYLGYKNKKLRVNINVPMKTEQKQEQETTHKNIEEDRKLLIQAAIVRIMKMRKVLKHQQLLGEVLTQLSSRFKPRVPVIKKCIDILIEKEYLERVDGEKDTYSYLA

The assay addresses E3 ubiquitin-protein ligase RBX1 (Homo sapiens) + Cullin-1 (Homo sapiens) (UniProt P62877+Q13616). In words: inhibition of cullin E3 di-ubiquitin formation – biochemical, FRET, E1/Cdc34 cascade, dose response (AID 1347408). The note with it: in vitro di-Ub FRET, E1/Cdc34/ROC1-CUL1 CTD.
In general, IC50 refers to the concentration that inhibits the measured activity by half. Regarding `COc1ccc(C=C2C(=O)N(Cc3ccco3)C(=O)N(C(C)C)C2=O)cc1`, the IC50 entry was “inactive”.

Regarding `CNc1ccccc(C(=O)C=Cc2ccc3c(c2)OCO3)c1=O`, the IC50 entry was “inactive”.

For the compound `CCNc1ccc(Br)cc(C(=O)/C=C/c2c(Cl)cccc2Cl)c1=O`, the IC50 result is “inactive”.

For the compound `CCCCCCCCCOc1ccc(C#CC(=O)O)cc1`, the half-inhibitory concentration (IC50) was 4.2 µM.

As for `CCOc1cccc2c1N[C@@H](c1ccc(C(=O)O)cc1)[C@H]1CC=C[C@@H]21`, the IC50 entry was “inactive”.

As for `NCCCSc1nc2c(c(=O)n1Cc1ccccc1)C1(CCCCC1)Cc1ccccc1-2`, the IC50 result was “inactive”.

With `CCOc1ccc2nc3cc(NC(=O)c4ccco4)ccc3c(N)c2c1`, the IC50 was 4.8 µM.

Take `Cc1ccc2c(c1)-c1c(c(C(=O)N3CCN(c4cc(C)ccc4C)CC3)nn1C)CS2`: the IC50 entry was “inactive”.

In the case of `CN(CCC(=O)C=Cc1ccc(Cl)c(Cl)c1)CCc1ccc2c(c1)OCO2`, the IC50 entry is “inactive”.

For the compound `Cc1ccc([C@@H]2Nc3c(ccc(C(=O)O)c3C)[C@@H]3C=CC[C@@H]32)cc1`, the IC50 entry was “inactive”.

For the compound `Cc1ccc(NC(=O)c2ccc(Cl)cc2Cl)c(S(=O)(=O)O)c1`, the IC50 entry was “inactive”.
